What is called Km is the concentration of substrate that gives half-maximal velocity. For orientation: IC50 means the concentration that inhibits the measured activity by half. As a reminder, the inhibition is the percentage by which the read-out fell short of the control. Low values mean a weak effect, high ones a strong effect. The Cmax is the peak of the concentration-time curve.

The text below walks through data of paper PMC9246766 (Pharmaceutical research, 2022).

Molecules are shown by their SMILES. Where two headings read alike, the source gives them in different places. A value given as a limit tells only on which side of the number the result lay.

Data set [1] has as its target T1, OCT3 (Homo sapiens, UniProt O75751).
T1 sequence (O75751 1-556): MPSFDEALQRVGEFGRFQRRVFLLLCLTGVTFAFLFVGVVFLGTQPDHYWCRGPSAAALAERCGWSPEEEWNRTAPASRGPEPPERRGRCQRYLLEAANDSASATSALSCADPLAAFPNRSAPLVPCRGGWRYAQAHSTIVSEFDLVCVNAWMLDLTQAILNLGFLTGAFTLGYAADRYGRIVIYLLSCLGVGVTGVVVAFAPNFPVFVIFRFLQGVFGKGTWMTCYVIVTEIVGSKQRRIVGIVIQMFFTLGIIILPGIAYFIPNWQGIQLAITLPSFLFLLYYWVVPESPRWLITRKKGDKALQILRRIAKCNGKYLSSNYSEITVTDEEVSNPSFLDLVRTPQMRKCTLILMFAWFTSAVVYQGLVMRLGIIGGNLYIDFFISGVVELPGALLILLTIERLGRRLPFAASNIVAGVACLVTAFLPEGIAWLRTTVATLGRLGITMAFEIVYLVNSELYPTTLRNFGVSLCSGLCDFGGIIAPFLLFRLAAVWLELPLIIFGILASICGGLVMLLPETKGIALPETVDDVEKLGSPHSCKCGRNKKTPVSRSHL
Nature of the data set: ASP+ uptake kinetics in HEK-293 cells overexpressing OCT3. In kind it is cell-based. The settings on record: read-out: Km of OCT3-mediated ASP+ uptake; 2 min uptake, 37°C; OCT3-specific uptake (OCT3 minus empty vector).

The target of data set [2] is T1, OCT3. Briefly: Predicted DDI potential: ratio of plasma CMAX (total or unbound) to predicted OCT3 IC50. The settings on record: unbound plasma CMAX over predicted OCT3 IC50.
The conditions of data set [3]: plasma protein binding used for unbound CMAX; source not given; cited from earlier work.
Data set [4] addresses T1, OCT3. Nature of the data set: High throughput screen: inhibition of OCT3-mediated ASP+ uptake in HEK-293 cells stably expressing OCT3. In kind it is cell-based. The settings on record: for inhibition at 20 µM: HEK293.
For data set [5] the following is noted: total maximum plasma concentration; ref http://www.micromedexsolutions.com/; cited from earlier work.
The conditions of data set [6]: cited from earlier work; for FDA product insert: warnings, precautions and major adverse reactions: cardiovascular / CNS related, ref FDA product insert; for Neurological side effects: stated in discussion, ref Table SII, 60.
The target of data set [7] is T1, OCT3. The settings on record: read-out: Experimental IC50; OCT3 inhibition, literature value; ref 1 (Bourdet et al., 2005); cited from earlier work.
The target of data set [8] is T1, OCT3. Briefly: IC50 determination against OCT3-mediated [14C]metformin uptake in HEK-293 cells overexpressing OCT3. In kind it is cell-based.
Data set [9] has as its target T1, OCT3. Briefly: IC50 determination against OCT3-mediated ASP+ uptake in HEK-293 cells overexpressing OCT3. It counts as cell-based.

As for `CN(C)c1ccc(/C=C/c2cc[n+](C)cc2)cc1` [ASP^+, 4-Di-1-ASP], on OCT3 [1], the Km worked out at 33.3 µM.

As to `CC1(C)S[C@@H]2[C@H](NC(=O)[C@H](NC(=O)N3CCNC3=O)c3ccccc3)C(=O)N2[C@H]1C(=O)O` [azlocillin], the “Unbound CMAX/IC50” value at OCT3 [2] was 1.23. Further, the Protein binding in data set [3] is reported as 30%. At OCT3 [4], the IC50 was found to be 9.9 µM and the inhibition at 20 µM came to 66.9%. For the same molecule, in data set [5], the peak concentration (Cmax) is 17.3 µM.

Turning to `NC(N)=Nc1nc(CSCCC(N)=NS(N)(=O)=O)cs1` [famotidine], in [6], the “FDA product insert: warnings, precautions and major adverse reactions” value (“FDA product insert: warnings” below) is “Warnings and precautions: Central Nervous System (CNS) Adverse Reactions: Advise elderly patients and those with moderate and severe renal impairment of the risk of CNS adverse reactions, including confusion, delirium, hallucinations, disorientation, agitation, seizures, and lethargy”; the Neurological side effects entry is on record as “neurological side effects”. Further, the half-inhibitory concentration (IC50) on OCT3 [7] is 6.7 ± 2 µM. In addition, the “Unbound CMAX/IC50” value at OCT3 [2] is listed as 28.0. The Protein binding in data set [3] is reported as 10%. On OCT3 [4], this molecule came in with an IC50 of 9.9 µM and an inhibition at 20 µM of 66.9%. Moreover, in [5], the Cmax is 308 µM.

Regarding `O=C(O)c1ccccc1Nc1cccc(C(F)(F)F)c1` [flufenamic acid], on OCT3 [2], the “Unbound CMAX/IC50” value is 0.19. In addition, the Protein binding in data set [3] is on record as 90%. On OCT3 [4], this molecule had an IC50 of 13 µM and an inhibition at 20 µM of 60.6%. For the same molecule, the Cmax in data set [5] is 24.2 µM.

In the case of `C[C@@H](O)[C@H]1C(=O)N2C(C(=O)O)=C(S[C@@H]3CN[C@H](C(=O)N(C)C)C3)[C@H](C)[C@H]12` [meropenem], in data set [6], the “FDA product insert: warnings” value is “Warnings and precautions: Seizures and other adverse CNS experiences have been reported during treatment”; the Neurological side effects entry was “neurological side effects”. In addition, the “Unbound CMAX/IC50” value on OCT3 [2] is listed as 23.3. On OCT3 [4], this molecule registered an IC50 of 10.8 µM and an inhibition at 20 µM of 65%. For the same molecule, the Cmax in data set [5] is 256 µM.

Regarding `O=c1n(CCCN2CCN(c3cccc(Cl)c3)CC2)nc2ccccn12` [trazodone], the IC50 against OCT3 [8] is 2.5 µM; at OCT3 [9] it was 5.2 µM; on OCT3 [4] it was less than 5 µM. The “FDA product insert: warnings” value in data set [6] is “warnings and precautions related to cardiovascular side-effects”; in [6] (listed as Trazodone) it was “Warnings and precautions: Cardiac Arrhythmias: Increases the QT interval. Avoid use with drugs that also increase the QT interval and in patients with risk factors for prolonged QT interval”. The “Unbound CMAX/IC50” value at OCT3 [2] is given as 0.15. In data set [3], the Protein binding was 90%. Further, on OCT3 [4], the inhibition at 20 µM came out at 94.5%. Further, the peak concentration (Cmax) in data set [5] is 7.6 µM.
